Test system: 885724-159-R-J1-PDC complex spheroid viability
Experiment: Anticancer human tumor 885724-159-R-J1-PDC patient-derived pancreatic adenocarcinoma cell line growth inhibition [GQUAD]
Settings: for IC50: curve of first compound; for viability, T/C: stronger effect = lower value
Source text: DNA G-quadruplex Stabilizer Agents in Combinations in Complex Spheroids
A high-throughput screen of multi-cell type tumor spheroids was designed to identify active combinations of DNA G-quadruplex stabilizer agents and targeted small molecules. Complex spheroids include a stromal component modeled by human endothelial cells (HUVEC) and fibroblasts modeled by human mesenchymal stem cells (MSCs). The concentration ranges selected for each drug and investigational agent were based upon clinically achievable concentrations if the clinical Cmax of the agent was known.
Compounds. The drugs and investigational agents: pidnarulex (CX-5461; NSC782164), APTO-253 (NSC789042), BRACO-19 (NSC847499), peposertib (NSC802822), ceralasertib (NSC780249), elimusertib (NSC800525), camonsertib (NSC841442), AZD-1390 (NSC803789), olaparib (NSC753686), talazoparib (NSC767125), ART-558 (NSC835418), sotorasib (NSC818433), MRTX-1133 (NSC836407), SN-38 (NSC673596), topotecan (NSC609699), etoposide (NSC141540), doxorubicin (NSC123127), gemcitabine (NSC613327), 5-fluorouracil (NSC19893), paclitaxel (NSC125973), vemurafenib (NSC761431), panobinostat (NSC761190), R-306465 (JNJ-16241199; NSC773264), adavosertib (NSC754352), TP-3654 (NSC805149), carboplatin (NSC241240), KSQ-4279 (NSC840948), and staurosporine (NSC755774) were obtained from the National Cancer Institute (NCI) Developmental Therapeutics Program Chemical Repository (34). The FDA-approved anticancer drug set is available from the NCI Developmental Therapeutics Program. […] The stock solutions were prepared in dimethyl sulfoxide (DMSO, Sigma-Aldrich, St. Louis, MO, cat. D2650) at 800-fold the tested concentration and stored at -70 degrees C prior to their use. All drugs and investigational agents were tested over a range starting from a high concentration at or near the clinical Cmax and decreasing in half-log increments. If the clinical Cmax for an agent had not been determined, the highest concentration tested was 10 microM.
2.3 Cell Culture. All cells were maintained in an incubator at 37 degrees C and 5% CO2 with 95% humidity. The PDC lines were cultured according to standard operating procedures established by the NCI PDMR. All PDCs were thawed and cultured in Matrigel-coated flasks prepared with a working solution of 1X Ham's F-12 nutrient mix, without supplementation (Invitrogen, cat. 11765054), 100 U/mL penicillin-streptomycin (Invitrogen, cat. 15140122), and 2.5% Matrigel (Corning Inc., cat. 354248) for the first three passages. The 857933-349-R-J2-PDC line was cultured in 6C/Colon 1B media, which includes advanced DMEM/F-12 (Thermo Fisher Scientific, cat. 12634028), 10 mM HEPES (Thermo Fisher Scientific, cat. 15630080), 1X GlutaMAX supplement (Thermo Fisher Scientific, cat. 35050061), 0.1 mg/mL primocin (InvivoGen, cat. ant-pm-2), 10% defined fetal bovine serum, heat inactivated (HyClone Laboratories Inc., cat. SH30070.03HI), 50% L-WRN conditioned media (ATCC, cat. CRL-3276), 1.25 mM N-Acetyl-L-cysteine (Sigma-Aldrich, cat. A9165), 10 mM nicotinamide (Sigma-Aldrich, cat. N0636), 1X B-27 supplement (Thermo Fisher Scientific, cat. 17504044), 1X N-2 supplement (Thermo Fisher Scientific, cat. 17502048), 10 microM Y-27632 dihydrochloride (Tocris Bioscience, cat. 1254), and 50 ng/mL human EGF recombinant protein (Thermo Fisher Scientific, cat. PHG0311). The 485176-168-R4-J1-PDC line was cultured in Panc media, which includes all 6C/Colon 1B media components plus 100 ng/mL human FGF-10 (Thermo Fisher Scientific, cat. 100-26), 500 nM SB-431542 (Selleckchem, cat. S1067), and gastrin (Tocris, cat. 3006).
[…]
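Further: spheroids exposed to agents for seven days before readout.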
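Wherever viability, T/C is given: percent of vehicle control viability where 100% = DMSO wells.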

**Q.** Which results are given for `COc1cccc2c1C(=O)c1c(O)c3c(c(O)c1C2=O)CC(O)(C(=O)CO)CC3OC1CC(N)C(O)C(C)O1` (configuration not stated) + CN(C)c1ccc(Nc2c3ccc(NC(=O)CCN4CCCC4)cc3nc3cc(NC(=O)CCN4CCCC4)ccc23)cc1?
**A.** IC50 (second compound 0.0316 µM): 2170 nM; IC50 (second compound 0.1 µM): 2010 nM; IC50 (second compound 0.316 µM): 1730 nM; IC50 (second compound 1 µM): 1580 nM; IC50 (second compound 3.16 µM): 1620 nM; IC50 (second compound 10 µM): 1110 nM; viability, T/C (second compound 0.0316 µM, first compound 0.0316 µM): 101%; viability, T/C (second compound 0.0316 µM, first compound 0.1 µM): 96.3%; viability, T/C (second compound 0.0316 µM, first compound 0.316 µM): 96.2%; viability, T/C (second compound 0.0316 µM, first compound 1 µM): 73.9%; viability, T/C (second compound 0.0316 µM, first compound 3.16 µM): 38.1%; viability, T/C (second compound 0.0316 µM, first compound 10 µM): 1.56%; viability, T/C (second compound 0.1 µM, first compound 0.0316 µM): 89.4%; viability, T/C (second compound 0.1 µM, first compound 0.1 µM): 95.5%; viability, T/C (second compound 0.1 µM, first compound 0.316 µM): 81%; viability, T/C (second compound 0.1 µM, first compound 1 µM): 73.6%; viability, T/C (second compound 0.1 µM, first compound 3.16 µM): 35.4%; viability, T/C (second compound 0.1 µM, first compound 10 µM): 2.82%; viability, T/C (second compound 0.316 µM, first compound 0.0316 µM): 88.6%; viability, T/C (second compound 0.316 µM, first compound 0.1 µM): 87.8%; viability, T/C (second compound 0.316 µM, first compound 0.316 µM): 80.7%; viability, T/C (second compound 0.316 µM, first compound 1 µM): 55.3%; viability, T/C (second compound 0.316 µM, first compound 3.16 µM): 40.5%; viability, T/C (second compound 0.316 µM, first compound 10 µM): 1.92%; viability, T/C (second compound 1 µM, first compound 0.0316 µM): 81.1%; viability, T/C (second compound 1 µM, first compound 0.1 µM): 75%; viability, T/C (second compound 1 µM, first compound 0.316 µM): 68.6%; viability, T/C (second compound 1 µM, first compound 1 µM): 57%; viability, T/C (second compound 1 µM, first compound 3.16 µM): 39.8%; viability, T/C (second compound 1 µM, first compound 10 µM): 1.53%; viability, T/C (second compound 3.16 µM, first compound 0.0316 µM): 83.8%; viability, T/C (second compound 3.16 µM, first compound 0.1 µM): 71%; viability, T/C (second compound 3.16 µM, first compound 0.316 µM): 78.7%; viability, T/C (second compound 3.16 µM, first compound 1 µM): 59.2%; viability, T/C (second compound 3.16 µM, first compound 3.16 µM): 35.1%; viability, T/C (second compound 3.16 µM, first compound 10 µM): 1.32%; viability, T/C (second compound 10 µM, first compound 0.0316 µM): 74.2%; viability, T/C (second compound 10 µM, first compound 0.1 µM): 79.7%; viability, T/C (second compound 10 µM, first compound 0.316 µM): 59.1%; viability, T/C (second compound 10 µM, first compound 1 µM): 52.5%; viability, T/C (second compound 10 µM, first compound 3.16 µM): 32.7%; viability, T/C (second compound 10 µM, first compound 10 µM): 1.06%
